Columns and labels:
PDE4 = test: Inhibition of PDE4 (cytosolic enzyme preparation from U937 line), compared with rolipram; assay type: biochemical, human; conditions: PDE4 enzyme preparation obtained from the U937 line

## CCCn1nc(C(C)CC)c2c1C(=O)NCC(c1ccccc1)=N2 (racemic) [Example 70, (±)3-sec-Butyl-5-phenyl-1-propyl-6,7-dihydro-1H-pyrazolo-[4,3-e][1,4]diazepin-8-one]
PDE4
  IC50: 11 nM

## CCCn1nc(C)c2c1C(=S)NCC(c1ccccc1)=N2 [Example 22, 3-Methyl-5-phenyl-1-propyl-6,7-dihydro-1H-pyrazolo[4,3-e][1,4]diazepin-8-thione]
other
  melting point: 156 °C
PDE4
  IC50: 28 nM

## CCn1nc(C)c2c1C(=NC#N)NCC(c1ccc(OC)cc1)=N2 [Example 84, 1-Ethyl-3-methyl-5-(4-methoxyphenyl)-6,7-dihydro-1H-pyrazolo[4,3-e][1,4]diazepin-8-ylidenecyanamide]
other
  melting point: 265 °C
PDE4
  IC50: 60 nM

## CCCn1nc(C(C)CC)c2c1C(=O)NCC(c1ccc(OC)cc1)=N2 (racemic) [Example 90, (±)3-sec-Butyl-5-(4-methoxyphenyl)-1-propyl-6,7-dihydro-1H-pyrazolo[4,3-e][1,4]diazepin-8-one]
other
  melting point: 85 °C
PDE4
  IC50: 193 nM

## CCn1nc(-c2ccccc2)c2c1C(=O)NCC(c1ccccc1)=N2 [Example 4, 1-Ethyl-3,5-diphenyl-6,7-dihydro-1H-pyrazolo[4,3-e][1,4]diazepin-8-one]
PDE4
  IC50: 8.4 nM

## CCn1nc(C(C)C)c2c1C(=NC#N)NCC(C(C)(C)C)=N2 [Example 80, 5-tert-Butyl-1-ethyl-3-isopropyl-6,7-dihydro-1H-pyrazolo-[4,3-e][1,4]diazepin-8-ylidenecyanamide]
other
  melting point: 243 °C
PDE4
  IC50: 0.22 nM

## CCCn1nc(C(C)(C)C)c2c1C(=O)NCC(c1ccc(OC)cc1OC)=N2 [Example 51, 3-tert-Butyl-5-(2,4-dimethoxyphenyl)-1-propyl-6,7-dihydro-1H-pyrazolo[4,3-e][1,4]diazepin-8-one]
PDE4
  IC50: 60 nM

## Cc1nn(CC(F)(F)F)c2c1N=C(c1ccccc1)CNC2=O [Example 30, 3-Methyl-5-phenyl-1-(2.2.2-trifluoroethyl)-6,7-dihydro-1H-pyrazolo[4,3-e][1,4]diazepin-8-one]
PDE4
  IC50: 300 nM

## CCn1nc(C)c2c1C(=O)NCC(c1ccc(N(S(=O)(=O)c3ccccc3)S(=O)(=O)c3ccccc3)cc1)=N2 [Example 56, N-[4-(1-Ethyl-3-methyl-8-oxo-1,6,7,8-tetrahydro-pyrazolo[4,3-e][1,4]diazepin-5-yl)phenyl]-(phenylsulphonyl)benzenesulphonamide]
PDE4
  IC50: 500 nM

## CCn1nc(C)c2c1C(=O)NCC(c1ccc(C(F)(F)F)cc1)=N2 [Example 60, 1-Ethyl-3-methyl-5-(4-trifluoromethylphenyl)-6,7-dihydro-1H-pyrazolo[4,3-e][1,4]diazepin-8-one]
other
  melting point: 195 °C
PDE4
  IC50: 580 nM

## Cc1nn(CC2CC2)c2c1N=C(c1ccccc1)CNC2=O [Example 58, 1-Cyclopropylmethyl-3-methyl-5-phenyl-6,7-dihydro-1H-pyrazolo[4,3-e][1,4]diazepin-8-one]
PDE4
  IC50: 140 nM

## CCn1nc(C(C)(C)C)c2c1C(=O)NCC(c1ccc(O)cc1)=N2 [Example 96, 3-tert-Butyl-1-ethyl-5-(4-hydroxyphenyl)-6,7-dihydro-1H-pyrazolo[4,3-e][1,4]diazepin-8-one]
other
  melting point: 264 °C
PDE4
  IC50: 4.9 nM

## CCn1nc(C)c2c1C(=O)NCC(c1ccc(Br)cc1)=N2 [Example 7, 5-(4-Bromophenyl)-1-ethyl-3-methyl-6,7-dihydro-1H-pyrazolo[4,3-e][1,4]diazepin-8-one]
other
  melting point: 223 °C
PDE4
  IC50: 130 nM

## CCn1nc(C)c2c1C(=O)NCC(c1ccc(Cl)cc1)=N2 [Example 11, 5-(4-Chlorophenyl)-1-ethyl-3-methyl-6,7-dihydro-1H-pyrazolo[4,3-e][1,4]diazepin-8-one]
other
  melting point: 215 °C
PDE4
  IC50: 120 nM

## CCn1nc(C)c2c1C(=O)NCC(c1cccc(OC)c1)=N2 [Example 18, 1-Ethyl-5-(3-methoxyphenyl)-3-methyl-6,7-dihydro-1H-pyrazolo[4,3-e][1,4]diazepin-8-one]
other
  melting point: 120 °C
PDE4
  IC50: 100 nM

## CCn1nc(C)c2c1C(=O)NCC(C(C)(C)C)=N2 [Example 33, 5-tert-Butyl-1-ethyl-3-methyl-6,7-dihydro-1H-pyrazolo[4,3-e][1,4]diazepin-8-one]
other
  melting point: 120 °C
PDE4
  IC50: 110 nM

## CCn1nc(C)c2c1C(=O)NCC(c1ccccc1N)=N2 [Example 19, 5-(2-Aminophenyl)-1-ethyl-3-methyl-6,7-dihydro-1H-pyrazolo[4,3-e][1,4]diazepin-8-one]
other
  melting point: 156 °C
PDE4
  IC50: 87 nM

## CCCn1nc(C2CCCCC2)c2c1C(=O)NCC(c1ccccc1)=N2 [Example 74, 3-Cyclohexyl-5-phenyl-1-propyl-6,7-dihydro-1H-pyrazolo-[4,3-e][1,4]diazepin-8-one]
PDE4
  IC50: 5.4 nM

## CCCn1nc(C(C)C)c2c1C(=O)NCC(c1ccc(O)cc1)=N2 [Example 95, 5-(4-Hydroxyphenyl)-3-isopropyl-1-propyl-6,7-dihydro-1H-pyrazolo[4,3-e][1,4]diazepin-8-one]
other
  melting point: 230 °C
PDE4
  IC50: 15 nM

## CCn1nc(C(C)C)c2c1C(=O)NCC(c1ccc(C(F)(F)F)cc1)=N2 [Example 61, 1-Ethyl-3-isopropyl-5-(4-trifluoromethylphenyl)-6,7-dihydro-1H-pyrazolo[4,3-e][1,4]diazepin-8-one]
PDE4
  IC50: 7.9 nM

## CCn1nc(C)c2c1C(=O)NCC(c1cccc(Br)c1)=N2 [Example 14, 5-(3-Bromophenyl)-1-ethyl-3-methyl-6,7-dihydro-1H-pyrazolo-[4,3-e][1,4]diazepin-8-one]
other
  melting point: 173 °C
PDE4
  IC50: 81 nM

## CCn1nc(C(C)C)c2c1C(=O)NCC(c1ccc(N)cc1)=N2 [Example 27, 5-(4-Aminophenyl)-1-ethyl-3-isopropyl-6,7-dihydro-1H-pyrazolo[4,3-e][1,4]diazepin-8-one]
other
  melting point: 191 °C
PDE4
  IC50: 3.8 nM

## CCn1nc(C(C)(C)C)c2c1C(=O)NCC(C(C)(C)C)=N2 [Example 44, 3,5-Di-tert-butyl-1-ethyl-6,7-dihydro-1H-pyrazolo[4,3-e][1,4]diazepin-8-one]
PDE4
  IC50: 1.1 nM

## CCn1nc(C)c2c1C(=[SH]c1ccc(OC)cc1)NCC=N2 [Example 83, 1-Ethyl-S-(4-methoxyphenyl)-3-methyl-6,7-dihydro-1H-pyrazolo[4,3-e][1,4]diazepin-8-thione]
other
  melting point: 209 °C

## C=CCn1nc(C)c2c1C(=O)NCC(c1ccccc1)=N2 [Example 59, 1-Allyl-3-methyl-5-phenyl-6,7-dihydro-1H-pyrazolo[4,3-e][1,4]diazepin-8-one]
PDE4
  IC50: 510 nM

## CCn1nc(CC2CCCCC2)c2c1C(=O)NCC(c1ccncc1)=N2 [Example 76, 3-Cyclohexylmethyl-1-ethyl-5-pyrid-4-yl-6,7-dihydro-1H-pyrazolo[4,3-e][1,4]diazepin-8-one]
PDE4
  IC50: 8.2 nM

## CCOC(=O)c1nn(CC)c2c1N=C(c1ccccc1)CNC2=O [Example 5, Ethyl 1-ethyl-8-oxo-5-phenyl-1,6,7,8-tetrahydropyrazolo-[4,3-e][1,4]diazepin-3-carboxylate]
PDE4
  IC50: 390 nM

## CCCn1nc(C(C)(C)C)c2c1C(=O)NCC(C(C)(C)C)=N2 [Example 48, 3,5-Di-tert-butyl-1-propyl-6,7-dihydro-1H-pyrazolo[4,3-e][1,4]diazepin-8-one]
PDE4
  IC50: 8.1 nM

## CCCn1nc(CC2CCCCC2)c2c1C(=O)NCC(c1ccncc1)=N2 [Example 78, 3-Cyclohexylmethyl-1-propyl-5-pyrid-4-yl-6,7-dihydro-1H-pyrazolo[4,3-e][1,4]diazepin-8-one]
PDE4
  IC50: 21 nM

## CCOCc1nn(CC)c2c1N=C(c1ccccc1)CNC2=O [Example 97, 3-Ethoxymethyl-1-ethyl-5-phenyl-6,7-dihydro-1H-pyrazolo-[4,3-e][1,4]diazepin-8-one]
PDE4
  IC50: 1580 nM

## CCn1nc(CC2CCCCC2)c2c1C(=O)NCC(c1ccccc1)=N2 [Example 79, 3-Cyclohexylmethyl-1-ethyl-5-phenyl-6,7-dihydro-1H-pyrazolo[4,3-e][1,4]diazepin-8-one]
PDE4
  IC50: 11 nM

## CCn1nc(C(C)(C)C)c2c1C(=O)NCC(c1ccc(OC)cc1OC)=N2 [Example 47, 3-tert-Butyl-5-(2,4-dimethoxyphenyl)-1-ethyl-6,7-dihydro-1H-pyrazolo[4,3-e][1,4]diazepin-8-one]
PDE4
  IC50: 21 nM

## CCn1nc(C)c2c1C(=O)NCC(c1ccc(C(F)(F)F)cc1)=N2 [Example 62, 1-Ethyl-3-methyl-5-(4-trifluoromethylphenyl)-6,7-dihydro-1H-pyrazolo[4,3-e][1,4]diazepin-8-one]
PDE4
  IC50: 260 nM

## CCCn1nc(C(C)C)c2c1C(=O)NCC(c1ccc(OC)cc1OC)=N2 [Example 43, 5-(2,4-Dimethoxyphenyl)-3-isopropyl-1-propyl-6,7-dihydro-1H-pyrazolo[4,3-e][1,4]diazepin-8-one]
PDE4
  IC50: 48 nM

## CCn1nc(C)c2c1C(=O)NCC(CCC(=O)OC)=N2 [Example 10, Methyl 3-(1-ethyl-3-methyl-8-oxo-1,6,7,8-tetrahydro-pyrazolo[4,3-e][1,4]diazepin-5-yl)propanoate]
PDE4
  IC50: 1290 nM

## CCCn1nc(C(C)(C)C)c2c1C(=O)NCC(c1ccc(C)cc1)=N2 [Example 49, 3-tert-Butyl-1-propyl-5-p-tolyl-6,7-dihydro-1H-pyrazolo[4,3-e][1,4]diazepin-8-one]
PDE4
  IC50: 32 nM

## CCCn1nc(CC2CCCCC2)c2c1C(=O)NCC(c1ccccc1)=N2 [Example 77, 3-Cyclohexylmethyl-5-phenyl-1-propyl-6,7-dihydro-1H-pyrazolo[4,3-e][1,4]diazepin-8-one]
PDE4
  IC50: 210 nM

## CCn1nc(C(C)C)c2c1C(=O)NCC(c1ccc(N3CCCC3)cc1)=N2 [Example 38, 1-Ethyl-3-isopropyl-5-(4-pyrrolidin-1-yl-phenyl)-6,7-dihydro-1H-pyrazolo[4,3-e][1,4]diazepin-8-one]
PDE4
  IC50: 650 nM

## CCCn1nc(C(C)(C)C)c2c1C(=O)NCC(c1ccc(C#N)cc1)=N2 [Example 50, 4-(3-tert-Butyl-8-oxo-1-propyl-1,6,7,8-tetrahydro-1H-pyrazolo[4,3-e][1,4]diazepin-5-yl)benzonitrile]
PDE4
  IC50: 16 nM

## CCn1nc(C2CCCCC2)c2c1C(=O)NCC(c1ccccc1)=N2 [Example 72, 3-Cyclohexyl-1-ethyl-5-phenyl-6,7-dihydro-1H-pyrazolo-[4,3-e][1,4]diazepin-8-one]
PDE4
  IC50: 1.8 nM

From US6962912B2, “Substituted pyrazolo[4,3-e]diazepines, pharmaceutical compositions containing them, use as medicinal products and processes for preparing them” (Warner-Lambert LLC, priority 2000, dated 2005)
